The text below walks through data of patent publication US20100105864A1, “PROPHYLACTIC OR THERAPEUTIC AGENT FOR DIARRHEA” (priority 2007, published 2010).

The assay deals with rat large intestine loop. In words: Fluid absorption in rat large intestine loop method (PGE2-stimulated). Type of assay: in vivo, rats. The conditions noted are these: injected into loop 30 minutes after PGE2 i.p.; measured after 1 hour. The procedure: The cecum and large intestine were extirpated from the abdomen of each of male SD (IGS) rats under pentobarbital anesthesia, and the site 5 cm away from the area just under the cecum was ligated to form a large intestine loop Immediately after the loop had been formed, PGE2 (4 μg/ml/kg, SIGMA) was intraperitoneally administered, and after 30 minutes, a medicament, which had been dissolved in 2 ml of Tyrode's solution (NaCl: 136.9 mM, KCl: 2.7 mM, CaCl2.2H2O: 1.8 mM, MgCl2.6H2O: 1.04 mM, NaH2PO4.2H2O: 0.04 mM, NaH2PO4.2H2O: 0.04 mM, glucose: 5.55 mM, NaHCO3: 11.9 mM), was injected into the prepared loop (the medicament solution was adjusted so that the pH would be 6.5 to 7.5). As a control, Tyrode's solution free of any medicament (vehicle) was administered. After 1 hour, the loop weight, the loop weight after solution removal, and the loop area were measured to calculate a solution weight per unit area remaining in the loop.
The remaining solution amount per unit area was calculated with the following equation:
Remaining solution amount per unit area(g/cm^2)=(Loop weight−Loop weight after solution removal)/Loop area.
The fluid absorption was evaluated by calculating an inhibitory rate from the following equation:
Inhibitory rate(%)=100−(Remaining solution amount per unit area under drug administration−Remaining solution amount per unit area in base(average))/(Remaining solution amount per unit area under vehicle administration(average)−Remaining solution amount per unit area in base(average))×100.
(Base=case where no stimulation is given (no treatment with PGE2))

For the molecule `N[C@@H](CCC(=O)N[C@@H](CS)C(=O)NCC(=O)O)C(=O)O` [γ-Glu-Cys-Gly], the “fluid absorption (inhibitory rate from remaining solution amount per unit area)” value was “promoted fluid absorption”.
